Measured values from US20060013906A1, “Anti-helicobacter activity of celery seed extract” (priority 2002, published 2006).
Values after ≈ are worked out from the molar mass of the structure shown.

test system: H. pylori (strain 3339); assay: Broth dilution antimicrobial test, H. pylori strain 3339; type: cell-based, Helicobacter pylori; conditions: compounds from subfractions 6 and 10

Compared with CCCCC/C=C/C/C=C/CCCCCCCC(=O)O [Linoleic acid, cis, cis - 9,12- Octadecadienoic acid], α and β-Eudesmol is lower in MBC: greater than 125 µg/mL for the first, 125 µg/mL for the second.

In the case of CCCCC1OC(=O)C2=C1CCC=C2 (stereo not shown) [sedanenolide, 3-n-butyl 4,5-dihydrolphthalide], the MBC is reported as 62.5 µg/mL (≈ 325 µM).

Compared with CCCCC/C=C/C/C=C/CCCCCCCC(=O)O [Linoleic acid, cis, cis - 9,12- Octadecadienoic acid], α and β-Eudesmol is 4-fold lower in MIC: 62.5 µg/mL (≈ 223 µM) for the first, 15.6 µg/mL for the second.

Compared with CCCCC1OC(=O)C2=C1CCC=C2 (stereo not shown) [sedanenolide, 3-n-butyl 4,5-dihydrolphthalide], CCCCC1OC(=O)c2ccccc21 (stereo not shown) [3-n Butyl phthalide, 3-n-butyl phthalide] is 2-fold lower in MIC: 31.2 µg/mL (≈ 163 µM) for the first, 15.6 µg/mL (≈ 82.1 µM) for the second.
